Results on two molecules are retold here after patent US20230218589A1, “COMPOUND FOR PREVENTION OR TREATMENT OF A SKIN CANCER OR SKIN PRECANCER” (UNIQUEST PTY LTD, priority 2020, published 2023).

Structures are written as SMILES. Entries after “also recorded” stand apart in the source; their conditions may differ. Read-outs that look alike come from different tables or passages of the source.

One series relates to T lymphocytes. The settings on record: cited from earlier work.
A short description of series [1]: cSCC tumour pharmacokinetics after intra-tumoural injection (LC/MS/MS). The series is classed as in vivo, mouse. The settings on record: for concentration at 1 h / concentration at 6 h / concentration at 18 h: K14-HPV38-E6/E7, mouse, in vivo. How it is done: Tumour processing: The whole tumour was removed from the mouse. The weight of the tumour was recorded and tumour was placed into an appropriate cryovial on dry ice then transferred to a −80° C. freezer. 3 tumours per time point were assessed.
Calibration standards and quality control samples were prepared by adding 2.5 μL of stock solutions of test compound of different concentrations into 25 μL of naive mouse blood or skin homogenates. Control samples were prepared by spiking 2.5 μL of water or acetonitrile into 25 μL of naïve mouse blood or skin homogenates. Tumour samples were homogenised in 1 mL of PBS then transferred into polypropylene Eppendorf tubes. 100 μL of 0.1 M zinc sulfate was added into the tubes, vortexed for 10 sec, and 250 μL of HPLC-grade acetonitrile containing internal standard (pimecrolimus) was added, vortexed for 2 min, and centrifuged for 3 min at 800×g. 20-40 μL of the supernatant was analysed by LCMS/MS. Instrument: Acquity UPLC, Waters. Column: Acquity BEH C18 100×2.1 mm, 1.7 micron; Mobile phase A: methanol; Mobile phase B: 5 mM ammonium acetate with 0.1% formic acid; Mobile phase gradient details: T=0 min (10% A, 90% B); T=0.01 min (10% A, 90% B); gradient to T=1.5 min (95% A, 5% B); T=3.2 min (95% A, 5% B). Flow rate: 0.3 mL/min, run time: 4.5 min; Ionisation mode: Electrospray ionisation (positive).

For another series, the system named is CD8+ T cells. Put plainly: Mouse T cell proliferation assay (Cell Trace Violet, 7AAD, flow cytometry). The series is classed as cell-based. The settings on record: 3 days. How it is done: Spleens, inguinal and brachial lymph nodes were harvested from two C57BL/6 mice in sterile conditions and placed in sterile Phosphate Buffered Saline (PBS), then cells were dissociated into a single cell suspension by gently crushing all organs through a 70 μm cell strainer. Cells were washed through the strainer into a 50 mL falcon tube with 5 mL sterile ACK lysis buffer (0.15 M NH4Cl, 1 mM KHCO3 pH 7.3). Cells were incubated for 3 min at room temperature to lyse red blood cells. 5 mL sterile PBS was added to the cell suspension and cells were centrifuged at 350 g for 10 min at room temperature. Supernatant was removed and the cell pellet resuspended in 10 mL sterile PBS. Cells were centrifuged again at 350 g for 10 min at room temperature. The supernatant was removed and the cells were resuspended in 1 mL of sterile PBS.
1 μμL of 5 mM CellTrace Violet (Thermo Fisher) was added to the cell suspension and the mixture was swirled to ensure even dispersion of the dye. Cells were incubated for 20 min in the dark at room temperature. 5 mL of pre-warmed complete RPMI medium [(RPMI 1640 (Gibco), 10% heat inactivated FBS (Gibco), 1× Penicillin/Streptomycin/L-Glutamine, 100 μM 2-Mercaptoethanol] was added to the cell suspension and incubated in the dark at room temperature for 5 min. Cells were centrifuged at 350 g for 5 min at room temperature. Supernatant was removed without disrupting the cell pellet. Cells were resuspended in 1 mL complete RPMI medium.
Cells were counted using a haemocytometer and cells were adjusted to 2×10^6 cells/mL using complete RPMI medium. 500 μL of cell suspension was added to wells in a 48-well plate (Nunc) so the final number of cells per well was 1×10^6.
A vial of Dynabeads Mouse T Activator CD3/CD28 beads (4×10^7 beads/mL) was vortexed for 30 sec and 625 μL of beads was aliquoted into a 5 mL polypropylene FACS tube (Sarstedt). 1 mL of complete RPMI medium was added to the beads and mixed by pipetting. The FACS tube was placed in a StemCell Technologies EasySep magnet for 1 minute and supernatant was discarded. The tube was removed from the magnet and washed beads were resuspended in 625 μL of complete RPMI medium. 12.5 μL of bead suspension (5×10^5 beads) was added into appropriate wells of the 48-well plate with cell suspensions to induce T cell activation.
Cells were incubated in a humidified incubator at 37° C. with 5% CO2 for 1 hour before Compound 1 (or vehicle only) was diluted in complete RPMI medium and added to the appropriate wells at the concentration required. The final volume in all wells was 1 mL. Cells were incubated for 3 days in a humidified incubator at 37° C. with 5% CO2.
Cells were harvested from each well by resuspending cells with a pipette and transferring to polypropylene FACS tubes. […]

For the molecule `CC[C@@H]1/C=C(\C)[C@@H](O)[C@H](C)C[C@H](OC)[C@H]2O[C@@](O)(C(=O)C(=O)N3CCCC[C@H]3C(=O)O[C@H](/C(C)=C/[C@@H]3CC[C@@H](O)[C@H](OC)C3)[C@H](C)[C@@H](O)CC1=O)[C@H](C)C[C@@H]2OC` [Compound 1, 17-Ethyl-1,14,20-trihydroxy-12-[2′-(4″-hydroxy-3″-methoxycyclohexyl)-1′-methylvinyl]-23,25-dimethoxy-13,19,21,27-tetramethyl-11,28-dioxa-4-azatricyclo-[22.3.1.0^4,9]octacos-18-ene-2,3,10,16-tetraone], the EC50 with T lymphocytes (cultured with tacrolimus 1.2 nM, C57B1/6 mouse spleen T lymphocytes, read-out: ED50, concentration required to inhibit tritiated thymidine uptake of T cells by 50%) is below 50 µM. Further, the concentration at 1 h in series [1] (1 h post final dose, SCC tumours, read-out: Average Concentration Compound 1 in tumour) is 165000 ng/g. Besides, the concentration at 6 h in series [1] (6 h post final dose, SCC tumours, read-out: Average Concentration Compound 1 in tumour) was 148000 ng/g. Also, the concentration at 18 h in series [1] (18 h post final dose, SCC tumours, read-out: Average Concentration Compound 1 in tumour) was determined as 168000 ng/g. Also, the “average tumour concentration of Compound 1 relative to that of tacrolimus” value in series [1] (over 18 h) was “more than 2000 fold”. Also, in the series with CD8+ T cells (0.3 μM, 1 μM and 3 μM Compound 1 with 0.6 ng/mL tacrolimus), the “rescue of CD8+ T cell proliferation in the presence of tacrolimus” value is “dose dependent rescue; also recorded: dose dependently and significantly rescued”. The “effect on CD8+ T cell viability in the absence of tacrolimus” value with CD8+ T cells (Compound 1 0.3-3 μM, no tacrolimus, 7AAD) is reported as “no significant effect”. In addition, the “effect on CD8+ T cell proliferation in the absence of tacrolimus” value in the series with CD8+ T cells (Compound 1 0.3-3 μM, no tacrolimus) was “no significant effect”.

As to `C=CC[C@@H]1/C=C(\C)C[C@H](C)C[C@H](OC)[C@H]2O[C@@](O)(C(=O)C(=O)N3CCCC[C@H]3C(=O)O[C@H](/C(C)=C/[C@@H]3CC[C@@H](O)[C@H](OC)C3)[C@H](C)[C@@H](O)CC1=O)[C@H](C)C[C@@H]2OC` [tacrolimus, reference compound], the “inhibition of T cell proliferation” value in the series with T lymphocytes (tacrolimus 1.2 nM) is given as 100%. In series [1], this molecule returned a concentration at 1 h of 33 ng/g, a concentration at 6 h of 73 ng/g and a concentration at 18 h of 52 ng/g. In addition, the “CD8+ T cell proliferation compared to the vehicle control” value in the series on CD8+ T cells (0.6 ng/mL tacrolimus, CD3/CD28 beads) is listed as “inhibited”.
